Test results taken from PMC6576746, “Rational discovery of dual-indication multi-target PDE/Kinase inhibitor for precision anti-cancer therapy using structural systems pharmacology” (PLoS Computational Biology, 2019).

Key:
Test in all cases: cells
Design in all cases: species or system panel of human cancer cell lines; Eurofins OncoPanel proliferation; nuclei count by high-content fluorescence imaging, 10-point dose response
A388 = details: 72 h, cell count, 3 days
Procedure, shortened: (§1)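 Ten half-log concentrations from 100 μM (0.1% DMSO max) applied one day post-seeding, 3-day exposure at 37°C; untreated time-zero plate for GI50. Readout is nuclear cell count by automated fluorescence imaging, giving EC50, IC50, GI50 and 0–10 activity area.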

BM-1604 = details: BM-1604, 72 h, cell count, 3 days
Procedure, shortened: as §1

DOHH-2 = details: Homo sapiens, DOHH-2, 72 h, cell count, 3 days
Procedure, shortened: as §1

Daoy = details: Homo sapiens, Daoy, 72 h, cell count, 3 days
Procedure, shortened: as §1

Hs 688(A).T = details: 72 h, cell count, 3 days
Procedure, shortened: as §1

Hs 695T = details: Homo sapiens, Hs 695T, 72 h, cell count, 3 days
Procedure, shortened: as §1

LS-174T = details: Homo sapiens, LS174T, 72 h, cell count, 3 days
Procedure, shortened: as §1

PFSK-1 = details: Homo sapiens, PFSK-1, 72 h, cell count, 3 days
Procedure, shortened: as §1

RD = details: Homo sapiens, RD, 72 h, cell count, 3 days
Procedure, shortened: as §1

SNU-C2B = details: Homo sapiens, SNU-C2B, 72 h, cell count, 3 days
Procedure, shortened: as §1

SW-13 = details: Homo sapiens, SW13, 72 h, cell count, 3 days
Procedure, shortened: as §1

SW620 = details: Homo sapiens, SW-620, 72 h, cell count, 3 days
Procedure, shortened: as §1

SW684 = details: Homo sapiens, SW684, 72 h, cell count, 3 days
Procedure, shortened: as §1

SW872 = details: Homo sapiens, SW872, 72 h, cell count, 3 days
Procedure, shortened: as §1

[1] = 50% of maximum possible response

IC50 (SNU-C2B; [1]): 55.2 µM | GI50 (SNU-C2B; corrected for time zero): 31.1 µM | EC50 (SNU-C2B; curve inflection point): 45.4 µM | IC50 (SW-13; [1]): 6.13 µM | GI50 (SW-13; corrected for time zero): 3.72 µM | EC50 (SW-13; curve inflection point): 6.13 µM | IC50 (SW620; [1]): 19.7 µM | GI50 (SW620; corrected for time zero): 14.9 µM | EC50 (SW620; curve inflection point): 18.7 µM | IC50 (SW684; [1]): > 100 µM | GI50 (SW684; corrected for time zero): 17.1 µM | EC50 (SW684; curve inflection point): 21.1 µM | IC50 (SW872; [1]): 35.3 µM | GI50 (SW872; corrected for time zero): 28.9 µM | EC50 (SW872; curve inflection point): 35.3 µM
Compound: C[C@@H]1CC(=O)NN=C1c1ccc(NN=C(C#N)C#N)cc1 [levosimendan]
IC50 (A388; [1]): 61.1 µM | GI50 (A388; corrected for time zero): 48.4 µM | EC50 (A388; curve inflection point): 61.1 µM | IC50 (BM-1604; [1]): 12.6 µM | GI50 (BM-1604; corrected for time zero): 7.44 µM | EC50 (BM-1604; curve inflection point): 12.6 µM | IC50 (DOHH-2; [1]): 15.8 µM | GI50 (DOHH-2; corrected for time zero): 14.4 µM | EC50 (DOHH-2; curve inflection point): 15.8 µM | IC50 (Daoy; [1]): 16.7 µM | GI50 (Daoy; corrected for time zero): 13 µM | EC50 (Daoy; curve inflection point): 16.7 µM | IC50 (Hs 688(A).T; [1]): > 100 µM | GI50 (Hs 688(A).T; corrected for time zero): 10.5 µM | EC50 (Hs 688(A).T; curve inflection point): 16 µM | IC50 (Hs 695T; [1]): 44.9 µM | GI50 (Hs 695T; corrected for time zero): 15.2 µM | EC50 (Hs 695T; curve inflection point): 26.7 µM | IC50 (LS-174T; [1]): > 100 µM | GI50 (LS-174T; corrected for time zero): > 100 µM | EC50 (LS-174T; curve inflection point): > 100 µM | IC50 (PFSK-1; [1]): 19.6 µM | GI50 (PFSK-1; corrected for time zero): 13.9 µM | EC50 (PFSK-1; curve inflection point): 19.6 µM | IC50 (RD; [1]): 20.6 µM | GI50 (RD; corrected for time zero): 15.7 µM | EC50 (RD; curve inflection point): 20.6 µM
